Tests used:
Type in all cases: binding
P2RY11 = target: T1, P2RY11 (Homo sapiens, UniProt Q96G91); assay: NanoBRET screen HiBiT-P2RY11 in HEK293
T1 construct: purchased Promega (in-house HiBiT-GPCR construct library, NanoBRET)
T1 sequence (Q96G91 1-374): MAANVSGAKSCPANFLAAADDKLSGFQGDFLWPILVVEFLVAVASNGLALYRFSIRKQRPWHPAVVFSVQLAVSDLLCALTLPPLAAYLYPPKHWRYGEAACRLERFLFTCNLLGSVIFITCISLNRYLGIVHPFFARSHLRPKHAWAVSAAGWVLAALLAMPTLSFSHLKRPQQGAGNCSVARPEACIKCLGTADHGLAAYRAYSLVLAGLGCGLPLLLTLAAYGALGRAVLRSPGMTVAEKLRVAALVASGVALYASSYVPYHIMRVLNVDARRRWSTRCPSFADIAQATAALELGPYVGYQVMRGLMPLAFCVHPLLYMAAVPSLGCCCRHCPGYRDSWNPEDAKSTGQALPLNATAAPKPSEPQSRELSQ
Description: (§1) Each tracer candidate was screened across the entire library of HiBiT-GPCR constructs using NanoBRET as the detection modality. As depicted in Figure 4A, the specificity of interactions was evaluated through decrease in BRET due to competitive displacement of a bound tracer by excess parental compound. Each tracer was analyzed for binding to each HiBiT-GPCR fusion in the absence and in the presence of competing parental compound. Briefly, HEK293 cells were transfected with HiBiT-GPCR constructs diluted into promoterless DNA to reduce expression and maximize translocation to the cell surface. Each tracer candidate was then screened at concentrations of 1 μM and 0.1 μM across cells expressing these fusions. Cells were treated for 1.5 h with tracer either alone or in the presence of 20 μM competing parental compound (i.e., control). BRET was measured upon addition of purified LgBiT and subsequent complementation with HiBiT genetically fused to a GPCR. The specificity of interactions was assessed through a decrease in BRET signal due to competitive displacement of the bound tracer. To further gauge the robustness of these interactions, the fold response over the control (i.e., BRETtracer/BRETcontrol) was calculated. We chose a 1.5-fold response, which translates to ≥7-fold signal over noise as the minimal threshold required to score an interaction as positive. […]. Below we highlight the screening results obtained for our exemplary fluorescent tracers based on Clozapine, Amitriptyline and AZD1283.
(§2) HiBiT-GPCR DNA constructs were diluted in 10 mM Tris pH 8 to a final concentration of 0.01 μg/μL, arrayed in 96-well plates and stored at −20 °C. For transfection, HEK293 cells were suspended in Opti-MEM (without phenol red) supplemented with 2% fetal bovine serum (Seradigm) and 100 units/mL penicillin–streptomycin (Gibco) at a final concentration of 220,000 cells/mL and dispensed into white 96-well plates at 90 μL/well. Subsequent transfections and screens were carried using an Agilent Bravo Automated Liquid Handling Platform. First, the 96-well HiBiT DNA arrays were diluted 25-fold in Opti-MEM (without serum or phenol red) to a final concentration of 0.0004 μg/μL and 20 μL of the diluted DNAs were transferred into new 96-well plates. Next, promoterless carrier DNA (1 μg/μL) was diluted 25-fold (0.04 μg/μL) and then dispensed into the diluted arrays at 20 μL/well. Following brief mixing, Viafect transfection reagent (Promega) diluted 16-fold into Opti-MEM was dispensed into the plates at 40 μL/well. After mixing by pipetting, plates were incubated for 10 min on the pipetting station deck. The DNA-transfection reagent complexes were then added to plates containing cells. To facilitate the screen, 10 μL of DNA-transfection reagent complexes were added in duplicates to the top 4 and bottom 4 rows, resulting in two identical 48-well arrays per plate. Plates with transfected cells were incubated for 18–20 h at 37 °C/5% CO2. A screen of each tracer across the entire library using two different concentrations requires duplicate plates of transfected cells. Depending on the number of tracers being screened, transfections can be scaled up using the same ratios. The next day, for each tracer, four 20× screening solutions in tracer dilution buffer (Promega) were prepared: two duplicates at final concentration of 20 μM and two duplicates at a final concentration of 2 μM. A competing unmodified compound was added to one of each duplicate at a final concentration of 400 μM. The four resulting solutions were diluted 4-fold in Opti-MEM without serum or phenol red to generate 5× solutions (5 µM and 0.5 µM tracer +/− 100 μM competing compound). To screen the library, a BioTek MultiFlo FX liquid dispenser was used to dispense 22.5 µL of tracer solution to the top 4 rows and 22.5 µL tracer + competing compound solution to the 4 bottom rows. Plates were briefly mixed on an orbital shaker and incubated for 1.5 h at room temperature. […]

NPBWR1 = target: T2, NPBWR1 (Homo sapiens, UniProt P48145); assay: NanoBRET screen HiBiT-NPBWR1 in HEK293
T2 construct: purchased Promega (in-house HiBiT-GPCR construct library, NanoBRET)
T2 sequence (P48145 1-328): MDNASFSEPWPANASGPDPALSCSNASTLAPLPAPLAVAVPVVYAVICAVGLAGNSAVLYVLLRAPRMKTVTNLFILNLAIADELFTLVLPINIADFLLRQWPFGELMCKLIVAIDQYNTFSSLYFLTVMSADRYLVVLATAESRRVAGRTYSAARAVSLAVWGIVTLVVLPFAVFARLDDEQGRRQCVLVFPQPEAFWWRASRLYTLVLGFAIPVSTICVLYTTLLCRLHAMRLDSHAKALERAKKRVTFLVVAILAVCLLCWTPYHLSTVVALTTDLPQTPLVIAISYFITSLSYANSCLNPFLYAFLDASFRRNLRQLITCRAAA
Description: as §1, §2

GRM1 = target: T3, GRM1 (Homo sapiens, UniProt Q13255); assay: NanoBRET screen HiBiT-GRM1 in HEK293; settings: GRM1
T3 construct: purchased Promega (in-house HiBiT-GPCR construct library, NanoBRET)
T3 sequence (Q13255 19-1194): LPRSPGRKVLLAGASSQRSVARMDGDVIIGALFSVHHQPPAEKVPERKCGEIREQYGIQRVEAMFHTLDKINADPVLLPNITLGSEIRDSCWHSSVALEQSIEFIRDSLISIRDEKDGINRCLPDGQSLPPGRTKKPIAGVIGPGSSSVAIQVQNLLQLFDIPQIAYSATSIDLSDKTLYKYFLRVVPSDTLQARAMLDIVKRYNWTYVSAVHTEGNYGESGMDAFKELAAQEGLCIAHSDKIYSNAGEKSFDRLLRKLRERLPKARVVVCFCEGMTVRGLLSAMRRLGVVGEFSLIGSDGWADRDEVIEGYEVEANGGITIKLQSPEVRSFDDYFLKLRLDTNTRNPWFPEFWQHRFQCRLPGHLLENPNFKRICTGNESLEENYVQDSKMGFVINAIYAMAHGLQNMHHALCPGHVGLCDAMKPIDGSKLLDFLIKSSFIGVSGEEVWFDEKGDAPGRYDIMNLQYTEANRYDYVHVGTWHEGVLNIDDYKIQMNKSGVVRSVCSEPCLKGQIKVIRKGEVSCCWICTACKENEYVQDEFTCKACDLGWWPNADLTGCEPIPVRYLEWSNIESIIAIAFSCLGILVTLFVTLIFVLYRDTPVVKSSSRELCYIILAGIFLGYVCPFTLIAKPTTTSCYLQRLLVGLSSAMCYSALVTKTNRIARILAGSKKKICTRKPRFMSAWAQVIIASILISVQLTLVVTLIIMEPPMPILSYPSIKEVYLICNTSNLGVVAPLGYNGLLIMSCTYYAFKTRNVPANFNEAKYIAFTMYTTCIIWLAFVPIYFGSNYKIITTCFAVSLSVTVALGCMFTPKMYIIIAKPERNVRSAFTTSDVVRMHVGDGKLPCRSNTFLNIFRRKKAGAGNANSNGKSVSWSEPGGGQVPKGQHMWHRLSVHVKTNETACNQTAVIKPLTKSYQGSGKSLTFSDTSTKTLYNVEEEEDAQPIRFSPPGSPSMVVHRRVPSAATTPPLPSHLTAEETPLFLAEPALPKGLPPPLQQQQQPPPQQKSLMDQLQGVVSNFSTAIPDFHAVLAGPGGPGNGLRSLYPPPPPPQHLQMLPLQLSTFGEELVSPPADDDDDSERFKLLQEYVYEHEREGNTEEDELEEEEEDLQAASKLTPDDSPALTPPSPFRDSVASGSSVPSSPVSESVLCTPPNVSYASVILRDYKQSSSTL
Description: as §1, §2

C3AR1 = target: T4, C3AR1 (Homo sapiens, UniProt Q16581); assay: NanoBRET screen HiBiT-C3AR1 in HEK293
T4 construct: purchased Promega (in-house HiBiT-GPCR construct library, NanoBRET)
T4 sequence (Q16581 1-482): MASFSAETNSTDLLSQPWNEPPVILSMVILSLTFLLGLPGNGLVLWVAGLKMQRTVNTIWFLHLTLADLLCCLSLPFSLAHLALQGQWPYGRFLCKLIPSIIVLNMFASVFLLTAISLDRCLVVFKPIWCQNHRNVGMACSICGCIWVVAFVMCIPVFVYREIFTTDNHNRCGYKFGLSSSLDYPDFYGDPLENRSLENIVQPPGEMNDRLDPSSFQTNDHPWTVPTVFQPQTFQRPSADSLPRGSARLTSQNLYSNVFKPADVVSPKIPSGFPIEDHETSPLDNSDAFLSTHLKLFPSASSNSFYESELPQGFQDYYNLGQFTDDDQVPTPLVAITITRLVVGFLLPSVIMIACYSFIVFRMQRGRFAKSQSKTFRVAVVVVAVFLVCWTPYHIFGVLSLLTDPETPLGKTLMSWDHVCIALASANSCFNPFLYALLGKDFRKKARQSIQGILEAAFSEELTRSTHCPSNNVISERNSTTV
Description: as §1, §2

CCR8 = target: T5, CCR8 (Homo sapiens, UniProt P51685); assay: NanoBRET screen HiBiT-CCR8 in HEK293
T5 construct: purchased Promega (in-house HiBiT-GPCR construct library, NanoBRET)
T5 sequence (P51685 whole entry): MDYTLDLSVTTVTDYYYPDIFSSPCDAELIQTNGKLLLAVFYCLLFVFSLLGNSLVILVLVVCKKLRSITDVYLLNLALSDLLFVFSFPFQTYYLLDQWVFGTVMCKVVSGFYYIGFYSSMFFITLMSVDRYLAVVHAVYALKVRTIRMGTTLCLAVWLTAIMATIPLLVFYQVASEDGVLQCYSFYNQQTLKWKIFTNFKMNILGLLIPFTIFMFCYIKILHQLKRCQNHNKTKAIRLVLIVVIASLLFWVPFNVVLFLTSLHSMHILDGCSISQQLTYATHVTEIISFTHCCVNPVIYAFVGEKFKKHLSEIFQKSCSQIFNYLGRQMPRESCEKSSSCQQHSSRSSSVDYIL
Description: as §1, §2

[1] = tracer at 0.1μM, listed as amitriptyline-b-2-NB590
[2] = tracer at 1μM, listed as amitriptyline-b-2-NB590

## O=C(CCc1ccc2n1[B-](F)(F)[N+]1=C(c3ccc[nH]3)C=CC1=C2)NCCOCCOCCNC(=O)OCCOCCN1CCN(C2=Nc3ccccc3Sc3ccccc32)CC1 [Quetiapine-a-2-NB590]
P2RY11; P2RY11, tracer 0.1μM
  NanoBRET Fold Response: 1.05
P2RY11; P2RY11, tracer 1μM
  NanoBRET Fold Response: 0.91
NPBWR1; NPBWR1, tracer 0.1μM
  NanoBRET Fold Response: 1.01
NPBWR1; NPBWR1, tracer 1μM
  NanoBRET Fold Response: 1.04
GRM1; tracer 0.1μM
  NanoBRET Fold Response: 0.74
GRM1; tracer 1μM
  NanoBRET Fold Response: 1.00
C3AR1; C3AR1, tracer 0.1μM
  NanoBRET Fold Response: 0.86
C3AR1; C3AR1, tracer 1μM
  NanoBRET Fold Response: 1.02
CCR8; CCR8, tracer 0.1μM
  NanoBRET Fold Response: 0.93
CCR8; CCR8, tracer 1μM
  NanoBRET Fold Response: 1.16

## Cc1cc2c(s1)Nc1ccccc1N=C2N1CCN(CCCNC(=O)CCOCCOCCOCCOCCNC(=O)CCc2ccc3n2[B-](F)(F)[N+]2=C(c4ccc[nH]4)C=CC2=C3)CC1 [Olanzapine-a-2-NB590]
P2RY11; P2RY11, tracer 0.1μM
  NanoBRET Fold Response: 1.00
P2RY11; P2RY11, tracer 1μM
  NanoBRET Fold Response: 0.89
NPBWR1; NPBWR1, tracer 0.1μM
  NanoBRET Fold Response: 0.99
NPBWR1; NPBWR1, tracer 1μM
  NanoBRET Fold Response: 1.02
GRM1; tracer 0.1μM
  NanoBRET Fold Response: 0.89
GRM1; tracer 1μM
  NanoBRET Fold Response: 1.26
C3AR1; C3AR1, tracer 0.1μM
  NanoBRET Fold Response: 1.01
C3AR1; C3AR1, tracer 1μM
  NanoBRET Fold Response: 1.01
CCR8; CCR8, tracer 0.1μM
  NanoBRET Fold Response: 0.96
CCR8; CCR8, tracer 1μM
  NanoBRET Fold Response: 0.95

## CN(C)CCC=C1c2ccccc2CCc2ccc(C(=O)NCCNC(=O)CCOCCOCCOCCOCCNC(=O)CCc3ccc4n3[B-](F)(F)[N+]3=C(c5ccc[nH]5)C=CC3=C4)cc21 [Amitriptyline-b-2-NB590]
P2RY11; [1]
  NanoBRET Fold Response: 0.88
P2RY11; [2]
  NanoBRET Fold Response: 0.96
NPBWR1; tracer at 0.1μM
  NanoBRET Fold Response: 1.04
NPBWR1; tracer at 1μM
  NanoBRET Fold Response: 1.03
GRM1; tracer 0.1μM
  NanoBRET Fold Response: 0.77
GRM1; tracer 1μM
  NanoBRET Fold Response: 0.97
C3AR1; [1]
  NanoBRET Fold Response: 1.19
C3AR1; tracer at 1μM
  NanoBRET Fold Response: 1.00
CCR8; [1]
  NanoBRET Fold Response: 1.03
CCR8; [2]
  NanoBRET Fold Response: 1.03

## O=C(CCOCCOCCOCCOCCNC(=O)CCc1ccc2n1[B-](F)(F)[N+]1=C(c3ccc[nH]3)C=CC1=C2)NCCCN1CCN(C2=Nc3cc(Cl)ccc3Nc3ccccc32)CC1 [Clozapine-a-2-NB590]
P2RY11; P2RY11, 0.1μM tracer
  NanoBRET Fold Response: 1.04
P2RY11; P2RY11, 1μM tracer
  NanoBRET Fold Response: 0.93
NPBWR1; NPBWR1, 0.1μM tracer
  NanoBRET Fold Response: 1.07
NPBWR1; NPBWR1, 1μM tracer
  NanoBRET Fold Response: 1.03
GRM1; 0.1μM tracer
  NanoBRET Fold Response: 1.42
GRM1; 1μM tracer
  NanoBRET Fold Response: 0.90
C3AR1; C3AR1, 0.1μM tracer
  NanoBRET Fold Response: 1.18
C3AR1; C3AR1, 1μM tracer
  NanoBRET Fold Response: 1.21
CCR8; CCR8, 0.1μM tracer
  NanoBRET Fold Response: 1.02
CCR8; CCR8, 1μM tracer
  NanoBRET Fold Response: 0.93

## CN1CCN(C2=Nc3cc(Cl)ccc3Nc3ccc(CNC(=O)CCOCCOCCOCCOCCNC(=O)CCc4ccc5n4[B-](F)(F)[N+]4=C(c6ccc[nH]6)C=CC4=C5)cc32)CC1 [Clozapine-b-2-NB590]
P2RY11; P2RY11, 0.1μM tracer
  NanoBRET Fold Response: 1.04
P2RY11; P2RY11, 1μM tracer
  NanoBRET Fold Response: 0.98
NPBWR1; NPBWR1, 0.1μM tracer
  NanoBRET Fold Response: 1.05
NPBWR1; NPBWR1, 1μM tracer
  NanoBRET Fold Response: 1.07
GRM1; 0.1μM tracer
  NanoBRET Fold Response: 1.05
GRM1; 1μM tracer
  NanoBRET Fold Response: 0.74
C3AR1; C3AR1, 0.1μM tracer
  NanoBRET Fold Response: 0.99
C3AR1; C3AR1, 1μM tracer
  NanoBRET Fold Response: 1.02
CCR8; CCR8, 0.1μM tracer
  NanoBRET Fold Response: 0.88
CCR8; CCR8, 1μM tracer
  NanoBRET Fold Response: 0.89

## Cc1nc2n(c(=O)c1CCN1CCC(c3noc4cc(F)ccc34)CC1)CCCC2OC(=O)NCCOCCOCCOCCOCCNC(=O)CCc1ccc2n1[B-](F)(F)[N+]1=C(c3ccc[nH]3)C=CC1=C2 (stereo not drawn) [Risperidone-2-NB590]
P2RY11; P2RY11, tracer 0.1μM
  NanoBRET Fold Response: 1.04
P2RY11; P2RY11, tracer 1μM
  NanoBRET Fold Response: 0.88
NPBWR1; NPBWR1, tracer 0.1μM
  NanoBRET Fold Response: 1.07
NPBWR1; NPBWR1, tracer 1μM
  NanoBRET Fold Response: 1.06
GRM1; tracer 0.1μM
  NanoBRET Fold Response: 0.97
GRM1; tracer 1μM
  NanoBRET Fold Response: 0.84
C3AR1; C3AR1, tracer 0.1μM
  NanoBRET Fold Response: 0.93
C3AR1; C3AR1, tracer 1μM
  NanoBRET Fold Response: 0.98
CCR8; CCR8, tracer 0.1μM
  NanoBRET Fold Response: 0.98
CCR8; CCR8, tracer 1μM
  NanoBRET Fold Response: 0.89

Reference: publication PMC8151276, “An Integrated Approach toward NanoBRET Tracers for Analysis of GPCR Ligand Engagement” (Molecules, 2021)
